Results reported in patent publication US20250290915A1, “METHOD FOR PREDICTING RESPONSIVENESS TO THERAPY” (CANCERTAIN LIMITED, priority 2022, published 2025).

How the values were obtained:
Assay type in all cases: cell-based, human
[1] = system: Circulating Tumour Cells (CTCs) from a patient with lung cancer (adenocarcinoma); assay: Drug response score assay on CTCs (with CD45+ cells for immunotherapy) from blood, Example 5; conditions: lung cancer CTCs; for Drug sensitivity as calculated by the assay (interpretation of Drug Response Scores): Table 17
Description: (§1) CD45^+ cells and circulating tumour cells (CTCs) were isolated from a blood sample provided by each subject.
(§2) CD45 separation was performed by adding human CD45 microbeads (50 μl/ml blood), incubating for 15 minutes at 4° C. and then processing using an AutoMACS machine. This separates the blood sample into CD45^+ and CD45^−cells in 2 separate falcons. The falcon tubes are then centrifuged at 1200 rpm for 5 minutes.
(§3) The supernatant was removed from the CD45^+falcon tube, and the cells resuspended in DMEM with 2 μl Cell Tox, 2 μl MT and 2 μl MT. 20 μl of the resuspended CD45^+ cells was then plated in each well which will contain an immunotherapy treatment.
(§4) The supernatant was removed from the CD45^−falcon tube, and the CD45^−cells contacted with 100 μl of FcR block and 100 μl of CD326 (EpCAM) MicroBeads, followed by incubation at […] 4° C. for 30 minutes. The CD45^−cells were then processed using an AutoMACS machine to separate the EpCAM positive and negative cells into 2 separate falcon tubes. The EpCAM-cells were discarded. The supernatant was removed from the EpCAM^+ cells, and the cells resuspended in DMEM with 2 μl Cell Tox, 2 μl MT and 2 μl MT. 20 μl of the resuspended pellet was then added to all sample wells excluding a blank. After all wells are added to, a cell count was conducted on the […] to determine the number of circulating tumour cells (CTCs).
(§5) The different cell types were each divided equally into populations, depending on the number of drugs/concentrations to be tested and plated on a cell-culture plate pre-coated with a scaffold of polycaprolactone (PCL) electrospun fibres and incubated at 37° C., 5% CO2, for 5 to (typically 10) minutes to facilitate cell attachment. After attachment, an initial imaging step was carried out using the RealTime-Glo™ MT assay from Promega (Catalogue No. G9711)) and the CellTox™ Green Cytotoxicity Assay (Promega, Catalogue No. G8741), carried out according to manufacturer's instructions. Following this initial imagining, the immunotherapeutic and/or chemotherapeutic agents were added to the cell populations as indicated below. After 10 minutes, the imagining step was repeated. The cell populations were then incubated at 37° C., 5% CO2 for 48 hours. The imaging step was then repeated. The cell populations were then re-dosed with the same immunotherapeutic and/or chemotherapeutic agents as indicated below, and incubated at 37° C., 5% CO2 for a further 48 hours. After this second 48 hour incubation, the imagining step was repeated for a final time.
(§6) At the end of this culture period, dose response scores were calculated using a normalized drug response metric as described in Gupta et al. (Communications Biology volume 3, Article number: 42 (2020), https://doi.org/10.1038/s42003-020-0765-z). The start readout for a given immunotherapeutic or chemotherapeutic agent at a given concentration was the to readout for said immunotherapeutic or chemotherapeutic agent at a specified concentration. The end readout for a given immunotherapeutic or chemotherapeutic agent at a given concentration was the final timepoint reading (t96h) for said immunotherapeutic or chemotherapeutic agent at a specified concentration.
(§7) The positive control start readout for a given drug/concentration was the to readout for the corresponding drug at a specified concentration. The positive control end readout for the corresponding drug at a specified concentration was the final timepoint reading (t96h) for the corresponding blank well.
(§8) The negative control start and end readouts for a given immunotherapeutic or chemotherapeutic agent at a given concentration were the to and final timepoint reading (t96h) respectively for blank cell or blank immuno cell well respectively.
(§9) The sensitivity or resistance of a subject's cancer to a given immunotherapeutic or chemotherapeutic agent was determined based on the calculated drug response score as shown in Table 2. […]

[2] = system: Circulating Tumour Cells (CTCs) from a patient with head and neck cancer (squamous cell carcinoma); assay: Drug response score assay on CTCs from blood, Example 6
Description: as §1, §2, §4, §5, §6, §7, §8
The sensitivity or resistance of a subject's cancer to a given immunotherapeutic or chemotherapeutic agent was determined based on the calculated drug response score as shown in Table 2.
Blood samples from a patient with head and neck cancer (squamous cell carcinoma) were received on 11 Mar. 2022 and tested using a 7 drug panel.

[3] = system: Circulating Tumour Cells (CTCs) from a patient with rectal cancer (anorectal carcinoma with secondary lung cancer); assay: Drug response score assay on CTCs (with CD45+ cells for immunotherapy) from blood, Example 3
Description: as §1, §2, §3, §4, §5, §6, §7, §8, §9

[4] = system: Cancer Cells from tissue sample (CSCs, tumour marker+ cells) of a patient with GI cancer (Cholangio Carcinoma, stage 4); assay: Drug response score assay on tissue sample, Example 9
Description: (§10) Where a tissue sample was provided by each subject, cancer stem cells (CSCs, CD133^+), were isolated from said sample. Tumour marker cells were further isolated from each tissue sample. The remaining cells were designated tumour marker^+ cells.
(§11) First, disaggregation of the tissue samples was carried out. Disaggregation was dependent on the size of the tissue sample and the method of retrieval: • EBUS (Endobronchial Ultrasound Scan and Biopsy)—very small fragments of tissue in solution-spun at 1200 rpm for 5 minutes to collect tissue pellet • Bronchoscopy-larger fragments with larger amount of blood vessels • Broncho-lavage-similar to EBUS, spun at 1200 rpm for 5 minutes to collet tissue pellet
(§12) Once a pellet of tissue obtained, DMEM added to the tissue pellet and the material forced through a […] Smart strainer. Once a cell suspension was achieved, this was spun at 1200 rpm for 5 minutes and the supernatant removed. The cells were then resuspended to a volume of 60 μl.
(§13) 20 μl of FcR block and 20 μl of CD133 microbeads were added to the resuspended cells, followed by incubation for 15 minutes at 4° C. The cells were then processed using an AutoMACS machine. This separates the […] into CD133^+ and CD133^− cells in 2 separate falcons. The falcon tubes are then centrifuged at 1200 rpm for 5 minutes.
(§14) The supernatant was removed from the CD133+falcon tube, and the cells resuspended in DMEM with 2 μl Cell Tox, 2 μl MT and 2 μl MT. 20 μl of the resuspended […] was then plated in each well which will contain an immunotherapy treatment.
(§15) The supernatant was removed from the CD133^− falcon tube, and the CD133^− cells contacted with 40 μl of a tumour separation microbeads cocktail containing microbeads bound to anti-CD31, anti-CD45, anti-Glycophorin-A (Gly-A) and an anti-fibroblast antibody.
(§16) This cocktail is used to separate out tumour marker cells using MACS, by separating out CD31^+, CD45^+ and Gly-A^+ cells. In addition, anti-fibroblast antibody-labelled beads are also used. The cocktail is added to the CD133^− falcon tube, followed by incubation for 15 minutes at 4° C. MACS is carried out using an AutoMACS machine. This cells which are not bound by the CD31, CD45, Gly-A and anti-fibroblast antibody beads are the tumour marker^+ cells.
as §5
(§17) At the end of this culture period, dose response scores were calculated using a normalized drug response metric as described in Gupta et al. (Communications Biology volume 3, Article number: 42 (2020), https://doi.org/10.1038/s42003-020-0765-z). The start readout for a given immunotherapeutic or chemotherapeutic agent at a given concentration was the to readout for said immunotherapeutic or chemotherapeutic agent at a specified concentration. […]

[5] = system: Circulating tumour cells (CTCs) from a patient with GI cancer (Cholangio Carcinoma, stage 4); assay: Drug response score assay on blood sample, Example 9
Description: as §1, §2, §3, §4, §5, §6, §7, §8, §9

[6] = system: cancer cells derived from the tissue sample of a patient with osteosarcoma; assay: Drug response score assay on tissue sample, Example 10; conditions: osteosarcoma tissue sample
Description: as §10, §11, §12, §13, §14, §15, §16, §5, §17

Compound: C[C@@H](Oc1cc(-c2cnn(C3CCNCC3)c2)cnc1N)c1c(Cl)ccc(F)c1Cl [Crizotinib]
- effectiveness on Circulating Tumour Cells (CTCs) under laboratory conditions [1]: marginally more effective than other agents
- Drug sensitivity as calculated by the assay (interpretation of Drug Response Scores) [1]: S++

Compound: CN(Cc1cnc2nc(N)nc(N)c2n1)c1ccc(C(=O)N[C@@H](CCC(=O)O)C(=O)O)cc1 [Methotrexate]
- Drug sensitivity as calculated by the assay (interpretation of Drug Response Scores) [1]: S++
- Drug response score, conc. 1 ([2]; conc. 1: Ifos 0.125 μg/ml, Gemcit 2 μg/ml, Doxo 10 ng/ml, Etop 1 μg/ml, Metho 0.5 μg/ml, Capecit 200 μg/ml, Vinor 20 μg/ml, CTCs, t96h): 0.9711
- Drug response score, conc. 2 ([2]; conc. 2: Ifos 0.25 μg/ml, Gemcit 10 μg/ml, Doxo 30 ng/ml, Etop 4 μg/ml, Metho 1 μg/ml, Capecit 300 μg/ml, Vinor 40 μg/ml, CTCs, t96h): 0.9988
- Drug response score, conc. 3 ([2]; conc. 3: Ifos 5 μg/ml, Gemcit 20 μg/ml, Doxo 90 ng/ml, Etop 20 μg/ml, Metho 2 μg/ml, Capecit 400 μg/ml, Vinor 80 μg/ml, CTCs, t96h): 1.0559
- Drug response score, conc. 4 ([2]; conc. 4: Ifos 10 μg/ml, Gemcit 40 μg/ml, Doxo 270 ng/ml, Etop 100 μg/ml, Metho 4 μg/ml, Capecit 600 μg/ml, Vinor 200 μg/ml, CTCs, t96h): 0.7375
- effectiveness on Circulating Tumour Cells under laboratory conditions ([2]; head and neck cancer CTCs): not effective
- Drug sensitivity as calculated by the assay (interpretation of Drug Response Scores) ([2]; head and neck cancer CTCs, Table 20): Resistant

Compound: CNC(=O)c1cc(Oc2ccc(NC(=O)Nc3ccc(Cl)c(C(F)(F)F)c3)c(F)c2)ccn1 [Regorafinib]
- Drug response score, conc. 1 ([3]; conc. 1: Pembro 20 μg/ml, Nivo 20 μg/ml (CTCs + CD45+ cells), Lenva 50 ng/ml, Regor 60 μg/ml (CTCs), t96h): 0.9681
- Drug response score, conc. 2 ([3]; conc. 2: Pembro 40 μg/ml, Nivo 40 μg/ml (CTCs + CD45+ cells), Lenva 100 ng/ml, Regor 80 μg/ml (CTCs), t96h): 0.9212
- Drug response score, conc. 3 ([3]; conc. 3: Pembro 100 μg/ml, Nivo 80 μg/ml (CTCs + CD45+ cells), Lenva 200 ng/ml, Regor 120 μg/ml (CTCs), t96h): 0.7424
- Drug response score, conc. 4 ([3]; conc. 4: Pembro 160 μg/ml, Nivo 160 μg/ml (CTCs + CD45+ cells), Lenva 400 ng/ml, Regor 160 μg/ml (CTCs), t96h): −0.7024
- effectiveness on Circulating Tumour Cells under laboratory conditions ([3]; rectal cancer CTCs): Sensitive S+
- Drug sensitivity as calculated by the assay (interpretation of Drug Response Scores) ([3]; rectal cancer CTCs, Table 11): Sensitive (S+)

Compound: CCc1c2c(nc3ccc(OC(=O)N4CCC(N5CCCCC5)CC4)cc13)-c1cc3c(c(=O)n1C2)COC(=O)[C@]3(O)CC [Irinotecan]
- effectiveness on Cancer Cells from tissue sample under laboratory conditions ([4]; GI cancer (Cholangio Carcinoma) tissue sample): S+
- Drug sensitivity as calculated by the assay, Tissue ([4]; interpretation based on Drug Response Scores, tissue sample): S+
- Drug response score, conc. 1 ([4]; tissue sample, conc. 1 per Table 27B: Pem 20, Niv 20, Atez 100, Pacli 0.05, Irino 5, Beva 1 μg/ml, Len 50, 5-FU 250 ng/ml): 0.887
- Drug response score, conc. 2 ([4]; tissue sample, conc. 2 per Table 27B: Pem 40, Niv 40, Atez 200, Pacli 0.1, Irino 10, Beva 2 μg/ml, Len 100, 5-FU 500 ng/ml): 0.9135
- Drug response score, conc. 3 ([4]; tissue sample, conc. 3 per Table 27B: Pem 100, Niv 80, Atez 400, Pacli 0.2, Irino 25, Beva 4 μg/ml, Len 200, 5-FU 1000 ng/ml): 0.8742
- Drug response score, conc. 4 ([4]; tissue sample, conc. 4 per Table 27B: Pem 160, Niv 160, Atez 800, Pacli 1, Irino 50, Beva 8 μg/ml, Len 400, 5-FU 2000 ng/ml): 0.8612
- effectiveness on Circulating Tumour Cells under laboratory conditions ([5]; GI cancer (Cholangio Carcinoma) blood sample): S+
- Drug response score from blood sample, conc. 1 ([5]; conc. 1 of each drug as in Table 27, blood sample, t96h): 0.1974
- Drug response score from blood sample, conc. 2 ([5]; conc. 2 of each drug as in Table 27, blood sample, t96h): 0.3469
- Drug response score from blood sample, conc. 3 ([5]; conc. 3 of each drug as in Table 27, blood sample, t96h): 0.6197
- Drug response score from blood sample, conc. 4 ([5]; conc. 4 of each drug as in Table 27, blood sample, t96h): 0.5913
- Drug sensitivity as calculated by the assay, Blood ([5]; interpretation based on Drug Response Scores, blood sample): S+
- effectiveness on the cancer cells derived from the tissue sample under laboratory conditions [6]: show effectiveness
- Drug sensitivity as calculated by the assay (interpretation of Drug Response Scores) ([6]; Table 33): Sensitive (S++)

Compound: COc1cc2ncnc(Nc3ccc(F)c(Cl)c3)c2cc1OCCCN1CCOCC1 [Gefitinib]
- effectiveness on Circulating Tumour Cells (CTCs) under laboratory conditions [1]: relatively less effective compared rest of the agents
- Drug sensitivity as calculated by the assay (interpretation of Drug Response Scores) [1]: S+

Compound: C#Cc1cccc(Nc2ncnc3cc(OCCOC)c(OCCOC)cc23)c1 [Erlotinib]
- effectiveness on Circulating Tumour Cells (CTCs) under laboratory conditions [1]: relatively less effective compared rest of the agents
- Drug sensitivity as calculated by the assay (interpretation of Drug Response Scores) [1]: S+
